Reference: patent publication US7666414B2, “Methods for treating prostate cancer using modified antibodies to prostate-specific membrane antigen” (Cornell Research Foundation, Inc., priority 2001, dated 2010)
Like-named read-outs stand apart in the source and are kept apart here.

Experiments:
[1] = test system: vascular endothelium of solid tumors; assay: Phase I trial of 111In-DOTA-deJ591 in refractory solid tumor malignancies; type: in vivo; details: for Plasma clearance (T1/2): human, in vivo
Excerpt: Eligible patients were those with refractory solid tumor malignancies whose tumor types are known to express PSMA on the neovasculature.
Patients the participated in the study included eight renal cell cancer patients, four bladder cancer patients, two colon cancer patients, and one pancreas cancer patient.

[2] = test system: PSMA-positive CWR22 xenografts; assay: Efficacy in PSMA-positive CWR22 xenografts; type: in vivo, C.B-17 scid mice; details: for Tumor Growth Delay: Comparison II, q3dX5; for effect on CWR22 xenograft tumor growth: every three days for 5 doses, IV, equimolar to 14.5 mg/kg deJ591-DM1
Method: (§1) Experiment: Male SCID mice were implanted by serial passage of CWR22 prostate tumor xenograft. […] All treatments were given intravenously. Tumor growth and animal health were continually monitored throughout the study with tumor growth measured every 3 days.
Experiment: Male C.B-17 SCID mice bearing CWR22 xenografts approximately 200 mm^3 in size received IV injections (200 μL constant volume) of the test articles according to the dose and schedule as shown in Table 22.
Male C.B-17 scid mice bearing CWR22 xenografts approximately 200 mm^3 in size received IV injections (200 μL constant volume) of the test articles according to the dose and schedule shown in the Table 23.
The objective of this study was to determine how much the dosing interval could be increased at this dosage before a loss of efficacy in terms of TGD would be observed. […] The growth delays for the other schedules were: q7d, 53.0 days; q21d, 48.0 days; and q28d, 26.9 days. Similar to other studies using the CWR22 xenograft model, no curative responses were observed, with all tumors eventually resuming growth (FIG. 18).
as §1, with “intravenously and on a schedule of every three days for 5 doses.” for “intravenously.”
as §1, with “intravenously and on a schedule of every seven days for 5 doses.” for “intravenously.”

[3] = test system: hormone-refractory prostate cancer metastases; assay: Nuclear imaging with 111In or 177Lu labeled deJ591 versus standard imaging; type: in vivo, human
Method: The antibody scans were compared to standard imaging studies (bone, CT or MR scans) obtained on each patient to assess the underlying sensitivity, specificity, and accuracy of deJ591 targeting to metastatic sites. Bony and soft tissue metastases were evaluated independently.

[4] = test system: PSMA-positive human LNCaP tumors; assay: Biodistribution of 131I labeled MAbs in nude mice bearing LNCaP tumors; details: mouse, in vivo
Method: (§2) Prior to use, the cells were trypsinized, counted and suspended in Matrigel (Collaborative Biomedical Products, Bedford, Mass.). Nu/Nu Balb C mice 8-10 weeks of age were inoculated, in the right and left flanks, with a suspension of 5×10^6 LNCaP cells in Matrigel (BD Biosciences, Bedford Mass.). After a period of 14-18 days, tumors (100-300 mg) had developed. The PSMA-negative DU145 and PC3 cells were implanted in nude mice in an identical manner.
(§3) The PSMA-positive and PSMA-negative tumor bearing mice were injected, via the tail vein, with 80 KBq of the iodinated MAb (400 MBq/mg) in 200 μL of PBS (pH 7.4, 0.2% BSA). Groups of animals (3-8/group) were sacrificed after 2, 4 or 6 days. The major organs and tumors were recovered. The tissue samples were weighed and counted, with appropriate standards in an automatic NaI(Tl) counter. These measured relative activity data (cpm) were background corrected and expressed as a percentage of the injected dose per gram (% ID/g). […] J415, J591 and 7E11 were labeled with ^111In (100 MBq/mg). 80 KBq of the ^111In labeled MAbs were injected in groups of animals. The % ID/g in various organs and tumor tissues was determined at 2-6 days post injection in a similar way as described for ^131I labeled MAbs.

[5] = test system: recurrent prostate cancer; assay: Phase II trial of deJ591 with low-dose subcutaneous IL-2; type: in vivo, human; details: in combination with daily low-dose subcutaneous IL-2; six patients entered
Method: Patients receive daily low-dose subcutaneous rIL-2 (1.2×10^6 IU/m^2/day) on day 1 through day 56. […] IL-2 administration is continued during this period another two weeks afterwards. This 8-week regimen constitutes one cycle of therapy. Patients are evaluated for response at the end of one cycle. Patients who have responded to therapy or have stable disease are eligible for additional cycles of therapy. Additional cycles will be initiated when there is at least two consecutive rises in PSA at least 2 weeks apart. […] The dose of antibody will be adjusted based on additional data analysis of patients treated in this manner.

[6] = test system: PSMA-positive human LNCaP tumors; design: species or system nude mice; details: mouse, in vivo
Method: as §2, §3
For the imaging studies, animals were injected with 2 MBq of ^111In-DOTA-J591. […]

[7] = test system: prostate cancer; details: in vivo
Method: A single patient was treated with mAb deJ591. This patient had bulky, poorly differentiated prostate cancer and had failed multiple courses of external beam radiotherapy as well as multiple forms of hormonal and non-hormonal chemotherapy. […] Four doses (#1, 3, 6 and 11) were trace-radiolabeled with either ^131Iodine or ^111Indium for pharmacokinetic determinations and biodistribution. The mean effective serum residence time of ^131I-deJ591 ranged from 31.9 to 51.3 hours, depending on the dose. Tumor localization to known tumor sites was excellent after each of the radiolabeled doses over the five month period. Dose twelve was radiolabeled with a therapeutic quantity of ^90Yttrium (19mCi) calculated to deliver less than a 150 rad dose to the blood. This dose was determined in consultation with the FDA and took into account prior radiotherapy delivered by external beam and by 131 Iodine. […] The patient's platelet count dropped to 64,000 (normal: 150,000-300,000) at five weeks post ^90Y-DOTA-deJ591 administration (as an anticipated result of radiation to the bone marrow) prior to spontaneously returning to normal levels. […] The patient experienced no side effects. The patient's PSA declined from 63 at the time of deJ591-DOTA-9Y administration to 36. […] This patient succumbed to their metastatic prostate cancer ten and one-half months after initiating treatment with ^90Y-DOTA-deJ591.

[8] = test system: LNCaP cells tumor xenografts; assay: Murine J591-DM1 immunoconjugate in LNCaP xenografts; type: in vivo, BALB/c mice; details: unconjugated, alone or with unconjugated mAb J591, intraperitoneal qday x 5 days
Method: Tumor xenografts of LNCaP cells were established in the right flank of BALB/c mice (5×10^6 cells injected subcutaneously). Animals were observed until tumors were visible (7-10 mm). Animals were then treated with PBS, unconjugated mAb J591, unconjugated DM1, both mAb J591 and DM1 but unconjugated, and J591-DM1 immunoconjugate (100, 200, 300, and 400 mcg/day intraperitoneal qday×5 days). The mAb J591 was modified to introduce dithiopyridyl groups and then conjugated to DM1 via a hindered disulfide bond, as described above. Unconjugated mAb J591 and DM1 were given in equimolar concentrations.
Tumor xenografts of both LNCaP cells (5×10^6 cells injected subcutaneously in the right flank) and PC3 cells (3×10^6 cells injected subcutaneously in the left flank) were established in BALB/c mice. Animals were observed until LNCaP tumors were visible (PC3 tumors were present but much smaller). Animals treated with J591-DM1 immunoconjugate: 300 mcg/day intraperitoneal qday×5 days
Tumor xenografts of LNCaP cells were established subcutaneously in the right flank of BALB/c mice. […]
All animals were photographed pre- and post-treatment and tagged for identification. Tumor volume was determined (length×width×depth) and closely followed. […]

[9] = test system: CD-1 mice
Excerpt: Use of both mice and cynomolgus monkeys for nonclinical testing allowed comparison of exposure and toxicity across species on the basis of body surface area (mg/m^2), and thus aided in selecting the SSD for the proposed Phase 1 clinical trial.

[10] = test system: PSMA-positive 22RV1 xenografts; assay: Efficacy in castrate or intact scid mice bearing androgen-independent 22RV1 xenograft; type: in vivo, C.B-17 scid mice; details: 240 μg/kg, q3dX5
Method: Prostate tumors can be broadly classified as either androgen-dependent or androgen-independent. […] The 22RV1 cell line was originally developed as androgen-independent and can be grown as a xenograft in C.B-17 scid mice that have been left either intact or castrated. […] C.B-17 scid mice bearing CWR22 xenografts approximately 200 mm^3 in size received IV injections (200 μL constant volume) of the test articles according to the dosage and schedule shown in the Table 24.

Compound: deJ591: deimmunized form of murine anti-PSMA antibody J591, human IgG1/kappa constant regions, NS0 cell line ATCC PTA-3709
- Liver uptake ([1]; 5 mg): 28%+/−14
- Liver uptake ([1]; 10 mg): 17%+/−7
- Liver uptake ([1]; 20 mg): 13%+/−5
- Plasma clearance (T1/2) ([1]; 5 mg): 21 ± 11 h
- Plasma clearance (T1/2) ([1]; 10 mg): 24 ± 6 h
- Plasma clearance (T1/2) ([1]; 20 mg): 37 ± 8 h
- Tumor Growth Delay ([2]; 12.96 mg/kg): 1.9 days
- effect on CWR22 xenograft tumor growth [2]: no significant effect
- patients with soft tissue masses accurately targeted ([3]; eight out of nine): 89%
- patients without documented soft tissue metastases with negative mAb scans ([3]; fifteen patients): 100%
- specificity, negative bone scans negative on the deJ591 scan ([3]; seven patients): 100%
- concordance between standard imaging and mAb scans ([3]; soft tissue and bony metastases): 91%
- patients with bone metastases on bone scan accurately targeted ([3]; twelve of fifteen): 80%
- blood activity [4]: significantly lower compared to that of 7E11
- tumor uptake [4]: 8.55±1.29 % injected dose/gram
- Toxicities [5]: expected and minor
- blood activity [6]: 2.52±0.16 % ID/g
- human anti-deimmunized antibody (immune) response [7]: No detectable human anti-deimmunized antibody (immune) response developed

Compound: COc1cc2cc(c1Cl)N(C)C(=O)C[C@H](OC(=O)[C@H](C)N(C)C(=O)CCS)[C@]1(C)O[C@H]1[C@H](C)[C@@H]1C[C@@](O)(NC(=O)O1)[C@H](OC)/C=C/C=C(\C)C2 [DM1, reference compound]
- Tumor Growth Delay ([2]; 240 μg/kg): 9.5 days
- effect on CWR22 xenograft tumor growth [2]: some tumor growth delay
- lethality [8]: died within 48 hours of treatment completion
- Degree of Toxicity and Major Target Organs ([9]; DM1 0.86 mg/m^2 (0.29 mg/kg), single IV, CD-1 mice): Slight mitosis/necrosis of epidermis
- Degree of Toxicity and Major Target Organs ([9]; DM1 1.62 mg/m^2 ([…]), single IV, CD-1 mice): Mild bone marrow myeloid
- mortality ([9]; DM1 8.64 mg/m^2 (2.88 mg/kg), single IV, CD-1 mice): 100% mortality attributed to severe
- elevated AST and ALT values ([9]; DM1 […]^2 (1.08 mg/kg), single IV, CD-1 mice): moderate mitosis/necrosis of liver; no
- STD ([9]; severely toxic dosage, single IV, CD-1 mice): 1.80 mg/kg
- toxicity compared to deJ591-DM1 at equimolar dosages ([9]; single IV administration): tended to be less toxic than deJ591-DM1 at lower dosages
- MTD ([9]; single IV, CD-1 mice): 1.08 mg/kg
- Relative TGD (TGD of castrate mice/TGD of intact mice) [10]: 1.4
- Tumor Growth Delay ([10]; Castrate Mice): 9.1 days
- Tumor Growth Delay ([10]; Intact Mice): 6.3 days
